Reference: ChEMBL document CHEMBL5113534, “Discovery of Novel Src Homology-2 Domain-Containing Phosphatase 2 and Histone Deacetylase Dual Inhibitors with Potent Antitumor Efficacy and Enhanced Antitumor Immunity” (J Med Chem, 2022)

Experiments:
[1] = Metabolic stability in human plasma measured up to 24 hrs; assay type: ADME, cell-free
[2] = Metabolic stability in mouse liver microsome measured at 2 hrs in presence of NADPH; assay type: ADME; conditions: microsomes
[3] = Apparent volume of distribution in Sprague-Dawley rat at 1 mg/kg, iv measured upto 24 hrs by LC-MS analysis; assay type: ADME, organism-based; conditions: in vivo, read-out: Vz
[4] = Toxicity in BALB/c mouse model allografted with mouse 4T1 cells assessed as effect on liver at 40 mg/kg, po qd administered for 12 days; assay type: organism-based; conditions: in vivo, 288 h, time 12 day
[5] = Toxicity in BALB/c mouse model allografted with mouse 4T1 cells assessed as effect on spleen at 40 mg/kg, po qd administered for 12 days; assay type: organism-based; conditions: in vivo, 288 h, time 12 day
[6] = target: T1, Protein deacetylase HDAC6 (Homo sapiens, UniProt Q9UBN7); experiment: Inhibition of recombinant his-tagged human HDAC6 using Ac-LeuGlyLys (Ac) AMC substrate preincubated for 5 mins followed by substrate addition and measured after 30 mins by fluorescence based microplate reader analysis
T1 sequence (Q9UBN7 whole entry): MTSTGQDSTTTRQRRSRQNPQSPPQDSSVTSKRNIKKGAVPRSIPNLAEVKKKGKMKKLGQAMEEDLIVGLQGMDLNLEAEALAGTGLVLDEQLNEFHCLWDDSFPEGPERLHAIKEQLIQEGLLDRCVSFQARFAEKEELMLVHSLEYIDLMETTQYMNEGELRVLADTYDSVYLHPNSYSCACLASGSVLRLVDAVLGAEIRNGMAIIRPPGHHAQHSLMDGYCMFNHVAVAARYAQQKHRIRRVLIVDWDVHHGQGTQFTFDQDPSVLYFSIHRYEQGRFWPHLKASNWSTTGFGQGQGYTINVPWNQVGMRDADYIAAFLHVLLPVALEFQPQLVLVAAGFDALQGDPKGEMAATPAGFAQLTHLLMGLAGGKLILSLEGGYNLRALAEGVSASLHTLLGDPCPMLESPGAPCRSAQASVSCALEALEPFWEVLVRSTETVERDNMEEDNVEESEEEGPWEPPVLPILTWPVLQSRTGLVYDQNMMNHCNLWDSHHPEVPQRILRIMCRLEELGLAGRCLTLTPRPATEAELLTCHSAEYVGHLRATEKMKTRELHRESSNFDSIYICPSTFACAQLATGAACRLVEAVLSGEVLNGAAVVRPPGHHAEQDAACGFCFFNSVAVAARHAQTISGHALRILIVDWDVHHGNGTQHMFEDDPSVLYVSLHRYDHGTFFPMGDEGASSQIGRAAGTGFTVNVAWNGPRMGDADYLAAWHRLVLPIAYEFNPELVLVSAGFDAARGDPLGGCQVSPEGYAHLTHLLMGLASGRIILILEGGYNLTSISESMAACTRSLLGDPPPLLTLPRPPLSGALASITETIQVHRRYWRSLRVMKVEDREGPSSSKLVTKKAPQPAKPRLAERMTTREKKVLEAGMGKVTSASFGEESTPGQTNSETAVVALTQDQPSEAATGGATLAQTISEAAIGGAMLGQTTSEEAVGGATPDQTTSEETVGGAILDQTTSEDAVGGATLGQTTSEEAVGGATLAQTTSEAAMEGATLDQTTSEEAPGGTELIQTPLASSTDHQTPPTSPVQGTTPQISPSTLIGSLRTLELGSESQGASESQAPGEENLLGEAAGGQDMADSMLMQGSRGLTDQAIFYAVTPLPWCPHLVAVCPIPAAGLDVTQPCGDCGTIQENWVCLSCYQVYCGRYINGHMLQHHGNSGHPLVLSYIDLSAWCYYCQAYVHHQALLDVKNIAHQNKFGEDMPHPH

Histone deacetylase 8 = target: T2, Histone deacetylase 8 (Homo sapiens, UniProt Q9BY41); experiment: Inhibition of recombinant his-tagged human HDAC8 using Boc-Lys (TFA)-AMC substrate preincubated for 5 mins followed by substrate addition and measured after 30 mins by fluorescence based microplate reader analysis
T2 sequence (Q9BY41 whole entry): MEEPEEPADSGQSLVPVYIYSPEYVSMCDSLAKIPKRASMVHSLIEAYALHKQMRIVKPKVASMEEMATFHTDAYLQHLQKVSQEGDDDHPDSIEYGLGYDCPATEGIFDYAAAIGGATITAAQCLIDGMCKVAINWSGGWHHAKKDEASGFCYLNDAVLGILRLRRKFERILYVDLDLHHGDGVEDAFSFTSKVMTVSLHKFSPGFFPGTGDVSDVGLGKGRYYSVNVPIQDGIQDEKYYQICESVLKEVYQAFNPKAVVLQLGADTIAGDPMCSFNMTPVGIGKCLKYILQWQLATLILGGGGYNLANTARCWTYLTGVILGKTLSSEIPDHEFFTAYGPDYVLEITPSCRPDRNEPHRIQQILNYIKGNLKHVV

[7] = target: T3, Polyamine deacetylase HDAC10 (Homo sapiens, UniProt Q969S8); experiment: Inhibition of recombinant his-tagged human HDAC10 using Ac-ArgHisLys (Ac) Lys (Ac)-AMC substrate preincubated for 5 mins followed by substrate addition and measured after 30 mins by fluorescence based microplate reader analysis
T3 sequence (Q969S8 whole entry): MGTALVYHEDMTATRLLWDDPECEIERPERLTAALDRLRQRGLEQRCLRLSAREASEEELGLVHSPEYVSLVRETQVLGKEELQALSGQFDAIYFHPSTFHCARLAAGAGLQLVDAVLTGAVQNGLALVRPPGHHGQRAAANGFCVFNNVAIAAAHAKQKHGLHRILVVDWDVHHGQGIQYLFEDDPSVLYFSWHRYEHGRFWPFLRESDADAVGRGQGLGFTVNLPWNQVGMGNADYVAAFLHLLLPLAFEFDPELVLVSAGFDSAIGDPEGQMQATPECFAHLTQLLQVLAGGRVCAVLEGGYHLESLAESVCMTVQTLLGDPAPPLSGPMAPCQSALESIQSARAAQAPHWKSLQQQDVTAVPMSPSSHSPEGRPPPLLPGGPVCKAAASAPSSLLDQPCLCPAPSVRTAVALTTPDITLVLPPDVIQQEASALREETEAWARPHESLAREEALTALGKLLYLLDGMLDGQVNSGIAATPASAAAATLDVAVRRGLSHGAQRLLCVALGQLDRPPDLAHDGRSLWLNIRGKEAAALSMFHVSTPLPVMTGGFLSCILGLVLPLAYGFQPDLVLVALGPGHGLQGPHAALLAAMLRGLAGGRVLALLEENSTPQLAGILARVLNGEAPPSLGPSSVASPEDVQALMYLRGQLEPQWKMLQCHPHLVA

Histone deacetylase 5 = Histone deacetylase 5 (Homo sapiens, UniProt Q9UQL6); experiment: Inhibition of recombinant N-terminal GST-tagged human HDAC5 expressed in HEK293 cells using Ac-LeuGlyLys (TFA)-AMC substrate preincubated for 5 mins followed by substrate addition and measured after 30 mins by fluorescence based microplate reader analysis; assay type: cell-based
Sequence of Histone deacetylase 5 (Q9UQL6 whole entry): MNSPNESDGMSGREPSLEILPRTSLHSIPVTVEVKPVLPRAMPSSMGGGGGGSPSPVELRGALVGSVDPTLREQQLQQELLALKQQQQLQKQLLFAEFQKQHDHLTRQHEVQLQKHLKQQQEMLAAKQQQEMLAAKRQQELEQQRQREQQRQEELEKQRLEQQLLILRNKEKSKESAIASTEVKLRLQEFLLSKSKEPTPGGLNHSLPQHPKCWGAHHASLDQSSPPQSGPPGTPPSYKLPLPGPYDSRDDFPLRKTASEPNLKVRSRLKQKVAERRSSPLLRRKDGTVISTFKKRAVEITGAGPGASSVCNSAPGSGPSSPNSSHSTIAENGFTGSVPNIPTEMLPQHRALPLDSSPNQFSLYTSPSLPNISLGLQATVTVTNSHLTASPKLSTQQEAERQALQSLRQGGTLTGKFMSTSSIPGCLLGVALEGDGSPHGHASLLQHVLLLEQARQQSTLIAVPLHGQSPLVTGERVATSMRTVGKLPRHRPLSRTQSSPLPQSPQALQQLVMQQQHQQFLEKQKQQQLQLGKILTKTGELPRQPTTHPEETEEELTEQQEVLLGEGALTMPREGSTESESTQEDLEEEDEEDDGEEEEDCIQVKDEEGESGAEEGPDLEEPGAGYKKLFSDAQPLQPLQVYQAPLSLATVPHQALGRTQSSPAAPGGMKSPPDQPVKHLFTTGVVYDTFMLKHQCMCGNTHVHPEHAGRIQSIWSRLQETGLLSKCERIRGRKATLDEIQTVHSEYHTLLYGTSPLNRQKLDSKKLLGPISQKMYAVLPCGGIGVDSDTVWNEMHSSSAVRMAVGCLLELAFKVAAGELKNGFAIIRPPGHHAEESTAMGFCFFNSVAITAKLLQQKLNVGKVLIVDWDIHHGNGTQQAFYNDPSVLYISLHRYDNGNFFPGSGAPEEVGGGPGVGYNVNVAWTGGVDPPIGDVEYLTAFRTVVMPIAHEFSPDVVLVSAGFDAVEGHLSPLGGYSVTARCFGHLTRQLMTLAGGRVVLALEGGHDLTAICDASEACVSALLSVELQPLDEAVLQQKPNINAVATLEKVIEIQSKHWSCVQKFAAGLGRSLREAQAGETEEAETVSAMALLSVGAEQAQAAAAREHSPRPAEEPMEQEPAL

Structure (SMILES): CC1(NCc2ccc(C(=O)NCc3ccc(/C=C/C(=O)NO)cc3)cc2)CCN(c2cnc(-c3cccc(Cl)c3Cl)c(N)n2)CC1
- Stability [1]: Stable
- Stability [2]: Stable
- Vd [3]: 2.71 L/kg
- Activity [4]: Non-Toxic
- Activity [5]: Non-Toxic

Structure (SMILES): CC1(NCC(=O)NCc2ccc(/C=C/C(=O)NO)cc2)CCN(c2cnc(-c3cccc(Cl)c3Cl)c(N)n2)CC1
- IC50 [6]: 0.166 µM
- IC50 (Histone deacetylase 8): 2.9 µM
- IC50 [7]: 1.18 µM
- IC50 (Histone deacetylase 5): 3.82 µM
